Patent publication US20180071296A1, “COMBINATION THERAPY COMPRISING AN INHIBITOR OF JAK, CDK, AND PIM” (Novartis AG, priority 2013, published 2018)

How the values were obtained:
Type in all cases: in vivo
JAK2V617F allele burden = JAK2V617F allele burden in PBMC (taqman) at study endpoint in mouse MPN model; conditions: second experiment, FIG. 6, Compound A 60 mg/kg PO BID alone or with Compound B 75 mg/kg QD PO and Compound C 25 mg/kg QD PO
Description: (§1) The combination of Compound A, Compound B and Compound C was examined in a mouse model of MPN. In this model, Ba/F3 cells harbored Epo Receptor and JAK2 V617F mutations. Ba/F3-EpoR-JAK2^V617F was engineered with a luciferase tag for experimental imaging. Female SCID/Beige mice were inoculated with 1x10e6 Ba/F3-EpoR-JAK2^V617F cells through the tail vein. […] Additionally, JAK2V617F allele burden, defined as the relative ratio of JAK2V617F over wild type JAK2, is measured by taqman in PBMCs at study endpoint.
(§2) In the first experiment, disease-bearing mice were randomized into treatment cohorts, based on the disease burden. Mice were treated with vehicle, Compound B at 75 mg/kg, by oral gavage (PO) daily (QD), Compound A at 60 mg/kg, PO, twice daily (BID) and the combination of both agents. At study endpoint, spleen weight from each of the study cohorts was obtained. Relative change in the spleen weight was calculated by normalizing individual spleen weight against the mean spleen weight of the cohort receiving vehicle treatment.
In the second experiment, disease-bearing mice were randomized into treatment cohort, based on the disease burden. […] Relative spleen weight was calculated by normalizing individual spleen weight against the mean spleen weight of the cohort receiving vehicle treatment.

[1] = tested on: Ba/F3-EpoR-JAK2^V617F cells; assay: Total tumor load (bioluminescence, IVIS xenogen) in mouse MPN model; conditions: study endpoint; for reduction of total tumor load (level of bioluminescence) relative to the vehicle control: first experiment, FIG. 1, Compound A 60 mg/kg PO BID, Compound B 75 mg/kg PO QD, alone or combined, SCID/Beige mice
Excerpt: The combination of Compound A, Compound B and Compound C was examined in a mouse model of MPN. In this model, Ba/F3 cells harbored Epo Receptor and JAK2 V617F mutations. Ba/F3-EpoR-JAK2^V617F was engineered with a luciferase tag for experimental imaging. Female SCID/Beige mice were inoculated with 1x10e6 Ba/F3-EpoR-JAK2^V617F cells through the tail vein. Total tumor load was monitored with IVIS xenogen technology. It is defined as the sum of dorsal and ventral photon signal.
In the first experiment, disease-bearing mice were randomized into treatment cohorts, based on the disease burden. Mice were treated with vehicle, Compound B at 75 mg/kg, by oral gavage (PO) daily (QD), Compound A at 60 mg/kg, PO, twice daily (BID) and the combination of both agents.
In the second experiment, disease-bearing mice were randomized into treatment cohort, based on the disease burden. Mice were treated with vehicle, Compound A at 60 mg/kg, PO, twice daily (BID), and the triple combination of Compound A, Compound B (at 75 mg/kg, QD, PO) and Compound C (at 25 mg/kg, QD, PO).

[2] = tested on: Ba/F3-EpoR-JAK2^V617F cells; assay: Spleen weight at study endpoint in mouse MPN model
Description: as §1, §2
In the second experiment, disease-bearing mice were randomized into treatment cohort, based on the disease burden. Mice were treated with vehicle, Compound A at 60 mg/kg, PO, twice daily (BID), and the triple combination of Compound A, Compound B (at 75 mg/kg, QD, PO) and Compound C (at 25 mg/kg, QD, PO). At study endpoint, spleen weight from each of the study cohorts was obtained. Relative spleen weight was calculated by normalizing individual spleen weight against the mean spleen weight of the cohort receiving vehicle treatment.

[3] = first experiment, FIG. 2, Compound A 60 mg/kg PO BID, Compound B 75 mg/kg PO QD, alone or combined

Compound	down-modulation of JAK2V617F allele burden (JAK2V617F allele burden)	reduction of total tumor load (level of bioluminescence) relative to the vehicle control [1]	reduction of total tumor load (level of bioluminescence) ([1]; second experiment, FIG. 4, Compound A 60 mg/kg PO BID alone or with Compound B 75 mg/kg QD PO and Compound C 25 mg/kg QD PO)	reduction of spleen weight relative to that of the vehicle control [2, 3]	reduction of spleen weight relative to that of the vehicle control ([2]; second experiment, FIG. 5, Compound A 60 mg/kg PO BID alone or with Compound B 75 mg/kg QD PO and Compound C 25 mg/kg QD PO)
N#CC[C@H](C1CCCC1)n1cc(-c2ncnc3[nH]ccc23)cn1 [Compound A, (3R)-3-cyclopentyl-3-[4-(7H-pyrrolo[2,3-d]pyrimidin-4-yl)pyrazol-1-yl]propanenitrile]	~15%	~79%	~70%	~62%	~53%
CN(C)C(=O)c1cc2cnc(Nc3ccc(N4CCNCC4)cn3)nc2n1C1CCCC1 [Compound B, 7-Cyclopentyl-2-(5-piperazin-1-yl-pyridin-2-ylamino)-7H-pyrrolo[2,3-d]pyrimidine-6-carboxylic acid dimethylamide]		~77%		~38%	
